This note sets out measurements from a melting point compilation (Tetko et al.; mined from patent text by program, amines drawn as free bases though some values may be those of a salt).

As usually defined, the melting point is the temperature, or range, at which the solid turns liquid.

For the compound `CC(C)(C)c1cc(CCc2cc(C=O)cc(CCc3cc(C(C)(C)C)cc(C(C)(C)C)c3)c2)cc(C(C)(C)C)c1`, the melting point lay within 74 to 75 °C.

`NC(=O)c1c(N)oc2ccc(Cl)cc2c1=O` showed a melting point of 320 °C.

`Cc1cccc2ncc(-c3nnnn3C)c(=O)n12` registered a melting point of 232 to 234 °C.

With `Cc1cc(-n2nc(C#N)cc2-c2ccc(S(C)(=O)=O)cc2)ccc1F`, the melting point stood at 144 °C.

Regarding `CSCCN1CSC(=Cc2cc(C(C)(C)C)c(O)c(C(C)(C)C)c2)C1=O`, the melting point was 166 to 168 °C.

`COc1cc2c(c(OC)c1OC)CCC(C(=O)Cc1cccc(F)c1)C2C#N` (stereo not drawn): the melting point is 120 to 122 °C.

Regarding `CC(O)=C(C(=O)OCc1ccc([N+](=O)[O-])cc1)N1C(=O)C(NC(=O)COc2ccccc2)C1SS(=O)(=O)c1ccc(C)cc1` (stereo not drawn), the melting point is 159 to 160 °C.

In the case of `C=CCc1cc(C(C)=O)c(O)cc1OCCCCCCCC#N`, the melting point was 46 to 48 °C.

As to `O=C(Cl)C=Cc1c(Cl)cccc1Cl`, the melting point was in the range of 64.5 to 66 °C.

Compound `CCC(NS(=O)(=O)c1ccc(N2CCOCC2)cc1)C(=O)O` (stereo not drawn) yielded a melting point of 163 to 165 °C.

Take `Cc1cc(-c2ccc(O)cc2)ccc1C=O`: the melting point is 161 to 162 °C.

With `O=C(NCc1ccc(Cl)cc1)c1cn(C2CC2)c2oc(CCl)cc2c1=O`, the melting point fell in the range of 174 to 176 °C.

`COc1c(Br)c(-c2csc(C(C)C)n2)cc2oc(=O)c(Cl)c(C)c12` came in with a melting point of 186 °C.

With `CC(C)(C)OC(=O)NCC(=O)NCC(=O)Oc1ccc(-c2nn(C3CCCC3)c3c(F)cccc23)cc1`, the melting point was in the range of 103 to 104 °C.

In turn, `CC(C)(C)c1ccccc1N1CCN(C(=O)C2CCC(=O)N2CC(=O)O)CC1` (stereo not drawn) registered a melting point of 273 °C.

Compound `CCCCCC(O)C1C(=O)NC(C(=O)SCCNC(C)=O)(C(O)C2C=CCCC2)C1(C)O` (stereo not drawn) registered a melting point of 80 °C.

The compound `CCS(=O)c1c(C#N)nn(-c2c(Cl)cc(C(F)(F)F)cc2Cl)c1NCCSC` (stereo not drawn) yielded a melting point of 111 to 113 °C.

In turn, `CC(=O)Oc1ccccc1C=C1CCCc2cc(C)cnc21` showed a melting point of 85 to 87 °C.

Compound `COc1cc2c(cc1OCc1ccccc1)C1Cc3c(Cl)cc(OC)c(OCCO)c3CN1CC2` (stereo not drawn) showed a melting point of 154 °C.

As for `CCc1ccc2nc(C)[nH]c2c1N1CC(CNC(C)=O)OC1=O` (stereo not drawn), the melting point fell in the range of 217 to 218 °C.

`CCOC(=O)C1=C(C)NC(COC(C)=O)=C(C(=O)OCC)C1c1ccccc1OC` (stereo not drawn) gave a melting point of 84 to 86 °C.

On to `O=C(O)c1cnncc1C(F)(F)F`, for which the melting point is 150 to 151 °C.

For `O=C(O)CCCCN1C(=O)c2cccc([N+](=O)[O-])c2C1=O`, the melting point is 158 to 160 °C.

On to `O=C(CC[C@@H](C(=O)OCc1ccccc1)n1c2ccccc2c2ccccc21)OCCOC(=O)c1ccc(NC(=O)OCc2ccccc2)cc1`, for which the melting point stood at 45 °C.

Turning to `CON=C1C(c2ccccc2)=C(c2ccc(S(C)(=O)=O)cc2)C1(C)C`, the melting point is 146 to 147 °C.

Regarding `CCOC(=O)COc1ccc(C(=O)c2c(Br)cnn2CC)c(Cl)c1Cl`, the melting point fell in the range of 90 to 91 °C.

Turning to `Cn1nnc(-c2ccc3c(c2)c(C2=CCN(CCN4CCNC4=O)CC2)cn3-c2ccncc2)n1`, the melting point was 177 to 178 °C.

As to `CC(=O)N[C@@H]1CN(C(=O)c2nn(C)c3ccccc23)C[C@@H]1C` (relative stereo), the melting point lay within 202 to 204 °C.

As to `CN(C)C(=O)c1ccc(C(=O)CS(=O)(=O)C(c2ccc(Cl)cc2)c2ccc(Cl)cc2)s1`, the melting point lay in the range of 192 to 194 °C.

As for `CCOC(=O)C1=C(C)NC(C)=C(C(=O)OC)C1c1ccccc1/C=C/C(=O)OC(C)(C)C` (stereo not drawn), the melting point was in the range of 165 to 167 °C.

Take `CC1(c2ccc(OCc3ccccc3)c(C=O)c2)OCCO1`: the melting point is 78 to 80 °C.

In turn, `O=C(NCc1ccncc1)c1cccc2c1OCCO2` registered a melting point of 120 to 121 °C.

`CN(CCN1CCN(c2ccc(C(F)(F)F)cc2)CC1)C[C@@]1(C)Cn2cc([N+](=O)[O-])nc2O1` came in with a melting point of 148 to 150 °C.

`CCc1nc(OCc2ccc(Oc3ccc(C(F)(F)F)cc3)cc2)c(C)c(=O)n1CC`: the melting point was 93.8 to 95.7 °C.

For `COC(=O)CS(=O)(=O)C(C)c1ccc(-c2ccccc2)cc1` (stereo not drawn), the melting point is 79 to 80 °C.

Turning to `O=[N+]([O-])c1cccc2c(Br)cc3nc(O)c(O)nc3c12`, the melting point was > 300 °C.

With `COc1ccc(NC(=O)c2cc([N+](=O)[O-])ccc2NC(=O)c2ccc(C(C)(C)C)cc2)cc1`, the melting point was in the range of 210 to 211 °C.

With `N#Cc1cccc(-c2c(C(N)=O)c3n(c2Cl)CCN(C(=O)NC2CCOCC2)C3)c1`, the melting point fell in the range of 236 to 238 °C.

`Cc1c(C)c(N2Cc3cc(Cl)c(Cl)cc3C2)c(C)c2c1OC(C)(C)C2c1ccccc1` (stereo not drawn) displayed a melting point of 194 to 196 °C.

In the case of `CCC1(c2cccc(OC)c2)CCCCN(C)C1=O` (stereo not drawn), the melting point fell in the range of 62 to 64 °C.

For `COc1ccc(C2=Cc3ccc(OCc4ccccc4)cc3OC2)cc1`, the melting point is 152 to 154 °C.

Take `O=Cc1ccc(CBr)c2ccccc12`: the melting point fell in the range of 115 to 116 °C.

`Nc1cc(=O)n(CC2CCCCC2)c(=S)n1CC1CCCCC1` returned a melting point of 147 to 150 °C.

`CC(C)(C)c1ccc(S(=O)(=O)N2c3ccccc3C[C@H]2C(=O)NCc2ccc([N+](=O)[O-])cc2)cc1` came in with a melting point of 75 to 80 °C.

`C=CCOc1cccc(C(=O)c2ccccc2C(=O)OC)c1`: the melting point lay within 50 to 52 °C.

For the compound `CC(C)c1ccc(C(F)(F)C(F)(F)c2ccccc2)cc1`, the melting point lay within 97 to 104 °C.

Compound `N#CCC(=O)NCc1ccccc1Cl` gave a melting point of 102 to 104 °C.

Regarding `NC(=O)c1cc2cccc(N(CC3CC3)S(=O)(=O)c3cccs3)c2[nH]1`, the melting point lay within 229 to 231 °C.

`O=C(c1c(F)cccc1F)N1CSCN(c2ccc(Cl)cc2)C1=O` gave a melting point of 128 to 130 °C.

For the compound `Cc1ncc2ccc(-c3ccc(F)cc3)nc2n1`, the melting point was > 200 °C.

In the case of `CC(C)COc1nc(N)c2ncn(C3C=CCCC3)c2n1` (stereo not drawn), the melting point lay within 132 to 135 °C.

In the case of `Oc1cc2c(cc1CCCCc1ccccc1)OC(CCc1ccccc1)C2` (stereo not drawn), the melting point lay in the range of 50 to 53 °C.

Regarding `COc1cc(OC)c(C=O)cc1I`, the melting point lay within 170 to 172 °C.

For `C=C1CN(Cc2ccc(C(=O)Nc3ccccc3N)cc2)C(CC(=O)O)c2ccccc21` (stereo not drawn), the melting point was > 230 °C.

The compound `O=C1OC(=O)c2cc(OCCCOc3ccccc3)ccc21` displayed a melting point of 96 to 98 °C.

In turn, `CCSc1sc(C#N)c(N(C)C(C)=O)c1C#N` returned a melting point of 68 °C.

The compound `CCC1(CCCCN2CCN(c3ccc(C)c(Cl)c3)CC2)C(=O)Nc2ccccc21` (stereo not drawn) had a melting point of 103 to 106 °C.

`C=CCOCc1c(C=O)sc2c(=O)c(C(=O)NCc3ccc(Cl)cc3)cn(C)c12` returned a melting point of 144 to 147 °C.

For `CN1C(=O)C2(COc3cc4c(cc32)OCCO4)c2c(-c3cc(O)[nH]n3)cccc21` (stereo not drawn), the melting point is > 250 °C.

For `Cc1ccc(S(=O)(=O)OCCCCCCCCCOc2cccc(C(N)=O)c2)cc1`, the melting point fell in the range of 78 to 80 °C.

Compound `O=C1CC[N+]([O-])=C(c2ccccc2Cl)c2cc(Cl)ccc21` gave a melting point of 184 to 187 °C.

Take `CCOC(=O)C(=O)c1c[nH]c2ccc(Br)cc12`: the melting point is 182 to 183 °C.

With `O=C(Cn1c(-c2ccc(Cl)cc2)nc2cccnc21)N1CCN(c2cccc(C(F)(F)F)c2)CC1`, the melting point was 185 to 186 °C.

`O=CNc1ncc(C#Cc2ccc(Cl)cc2)c(Sc2ccc(O)cc2)n1` displayed a melting point of 261 to 262 °C.

Consider `CCn1cc(CN(C(=O)C2CCCc3c(O)cccc32)c2ccc(OC)cc2)cn1` (stereo not drawn), for which the melting point is 211 to 213 °C.

The compound `Nc1cc(C(=O)O)cc(SCc2ccccn2)c1-c1ccccc1` yielded a melting point of 210 to 211 °C.

With `CC(=O)OC1CCC2C3CCC4CC(=O)CC(C)C4(C)C3CCC12C` (stereo not drawn), the melting point fell in the range of 179 to 180 °C.

In the case of `CCCCn1cc(C(=O)C(=O)O)c2cc(-c3ccc(C(F)(F)F)cc3)ccc21`, the melting point was 149 °C.

As to `CC(c1ccc(-c2ccccc2F)cc1)S(=O)(=O)CC(=O)O` (stereo not drawn), the melting point was in the range of 144 to 146 °C.

Regarding `COC(=O)c1ccc(CC(C)NCC(O)c2ccccc2)c(OC)c1` (stereo not drawn), the melting point was in the range of 102 to 104 °C.

Consider `CCCCCOc1cc(C=CC(=O)O)ccc1OC`, for which the melting point is 150 °C.

`CS(=O)(=O)Nc1cc2oc(C#N)c(NC=O)c(=O)c2cc1Oc1ccccc1` had a melting point of 229 to 230 °C.

The compound `CC(C)SC(F)(F)c1nnc(N)s1` displayed a melting point of 119 to 121 °C.

For `CCC(/C=C(\OC)C(=O)OC)=C\c1cc2ccccc2[nH]1`, the melting point lay in the range of 93 to 95 °C.

Compound `CNC(=O)N(O)C(C)c1cc2cc(Cl)ccc2[nH]1` (stereo not drawn) returned a melting point of 159 to 160 °C.

For the compound `CN(c1ncccc1C#N)C1CCN(Cc2ccccc2)CC1`, the melting point was 58 to 60 °C.

For `COC(=O)c1cccc2c(I)c(OC)ccc12`, the melting point lay within 98 to 99 °C.

With `O=C(O)COc1cc(Cl)ccc1C(=O)NCc1ccc2c(c1)OCO2`, the melting point was 208 to 209 °C.

In turn, `COc1cccc(CNc2nc(NC[C@@H](C)O)nc3c2ncn3C(C)C)c1O` came in with a melting point of 100 to 103 °C.

As for `O=C1NC(=O)c2ccc(I)cc2/C1=C/NCc1ccc(-n2cccc2)c(O)c1`, the melting point was in the range of 230 to 231 °C.

As for `CCCSc1sc(C(=O)NC)c2c1-c1c(cnn1CC(F)(F)F)CC2`, the melting point lay within 75 to 76 °C.

In the case of `CC1CC(=O)N(c2ccccc2)c2cc(Cl)ccc2N1C` (stereo not drawn), the melting point is 113 to 114 °C.

In the case of `C=CCN(CC=C)C(=O)C1=C(C(=O)Nc2cc(OC3CCCC3)c(Cl)cc2F)CCCC1`, the melting point lay within 74 to 76 °C.

`Cn1cc(C(N)=O)c(=O)c2sccc21`: the melting point was in the range of 255 to 258 °C.

The compound `CCOC(=O)c1nccn1C1Cc2ccccc2C1=O` (stereo not drawn) came in with a melting point of 116 °C.

As to `O=C(Cn1sc2ccccc2c1=O)N1CCN(C(=O)Oc2ccc([N+](=O)[O-])cc2)CC1`, the melting point lay within 114 to 118 °C.

On to `CCOC(=O)N(C)C1CCN(c2nc3ccccc3n2Cc2ccc(F)cc2)CC1`, for which the melting point came out at 125 °C.

`COC(=O)C(Cc1ccc(OC)c(OC)c1)NNc1ccc(C)c(C)c1` (stereo not drawn) registered a melting point of 148 to 150 °C.
